The term IC50 denotes the concentration needed to halve the response being measured. For orientation: EC50 means the midpoint of the concentration-response curve.

The values below come from patent US20210315869A1, “COMPOUNDS AND METHODS FOR CSK MODULATION AND INDICATIONS THEREFOR” (Plexxikon Inc., priority 2020, published 2021).

One assay addresses T1, LCK (Homo sapiens, UniProt P06239).
T1 construct: purchased ProQinase
Kind of assay: Human LCK enzymatic assay (AlphaScreen, Poly (Glu4-Tyr) substrate). In kind it is biochemical. The following applies: 100 uM ATP; read-out: LCK IC50 (uM) COFACTOR: 100 uM ATP. How it is done: This assay measures the ability of LCK to phosphorylate a biotinylated peptide containing multiple tyrosine residues in vitro. The LCK enzyme was purchased from ProQinase. The biotinylated Poly (Glu4-Tyr) peptide substrate was purchased from Sigma-Aldrich. The LCK enzyme assay was performed using 1 ng LCK enzyme and 30 nM Poly (Glu4-Tyr) substrate in the presence of 25 mM Hepes pH 7.5, 10 mM MnCl2, 50 mM NaCl, 0.01% Tween-20, 0.5 mM DTT, 0.01% BSA, and 100 μM ATP. A 19 μL volume of the above reaction mixture was added to wells of 384-well AlphaPlate (PerkinElmer GA, USA) containing 1 μL of various concentrations of test compound or DMSO vehicle and incubated for 40 minutes at 25° C. 16 wells containing all the components of reaction mixture and 5% DMSO served as high control. 16 wells containing all the components except ATP of reaction mixture and 5% DMSO served as low control. The enzymatic reaction was stopped by the addition of 5 μL stop/detection mixture containing 25 mM Hepes pH 7.5 100 mM EDTA, and 10 μg/mL streptavidin-coated AlphaScreen donor beads (PerkinElmer GA, USA) and incubated for 20 minutes. A 5 μL mixture containing 25 mM Hepes pH 7.5, 100 mM EDTA, and 10 μg/mL anti-phosphotyrosine antibody PY20-coated AlphaScreen acceptor beads (PerkinElmer GA, USA) was added and the plate was incubated for 1 hour at room temperature. The streptavidin donor beads bind to the biotin moiety on the biotinylated Poly (Glu4-Tyr) substrate and the PY20 antibody-coated acceptor beads bind to tyrosine residues on the substrate that have been directly phosphorylated by LCK. Upon excitation of these beads with laser light at 680 nm, singlet oxygen was produced. This singlet oxygen was rapidly quenched, unless the AlphaScreen PY20 acceptor beads are in close proximity, in which case a proximity signal can be measured at 580 nm. In the presence of catalytic activity, there was a very strong proximity signal. Selective LCK inhibitors affect a decrease in this proximity signal through a decrease in phosphorylation of the Poly (Glu4-Tyr) substrate. The percentage of inhibition at individual concentrations relative to high and low controls was calculated. The data were analyzed by using nonlinear regression to generate IC50 values.
A general note: Bead proximity is the source of the signal in Alpha formats.

The subject of a further assay is Jurkat/NFAT-RE cells. Kind of assay: NFAT reporter assay (luciferase) in Jurkat/NFAT-RE cells. The following applies: Homo sapiens, 0.02 μg/mL anti-CD3 antibody OKT3, 3 hours, read-out: Jurkat EC50 (uM) Cell Assay: Reporter Cell Variant: NFAT response element. It counts as cell-based. The source says: To assess the ability of CSK inhibitors to activate LCK and stimulate signaling downstream of the T-cell receptor, an NFAT reporter assay was used for monitoring of LCK activation in cells through the activation of LCK-dependent signaling through a reporter assay. The Jurkat T-cell cell line was genetically engineered to express a luciferase reporter that is regulated by the NFAT-response element. (Clipstone, N. A., & Crabtree, G. R., Identification of calcineurin as a key signalling enzyme in T-lymphocyte activation, Nature, 357(6380), 695-697, 1992). Stimulation of the T-cell receptor with anti-CD3 antibody increases the expression of the luciferase reporter. To test the ability of CSK inhibitors to stimulate LCK and downstream T-cell signaling, the cells were stimulated with a suboptimal concentration of anti-CD3 ligand, to measure the ability of CSK inhibitors to increase luciferase expression.
This assay measures the signaling activity downstream of the T-cell receptor, specifically the ability of the NFAT transcription factor to be translocated to the nucleus and induce expression of a firefly luciferase gene. Jurkat/NFAT-RE cells stably expressing the NFAT reporter construct were purchased from BPS Bioscience. The assay was performed by plating 40,000 Jurkat/NFAT-RE cells in a 50 μL volume of serum-free growth media in a 96-well plate. Following an overnight incubation, the cells were treated with CSK inhibitors and 0.02 μg/mL anti-CD3 antibody OKT3 (BD Bioscience) for 3 hours at 37° C. High control wells were stimulated with DMSO and 5 μg/mL OKT3 to maximally stimulate the NFAT reporter, and low control wells were stimulated with DMSO and 0.02 μg/mL OKT3. Following the 3 hour incubation, the cells were assayed for viability using CellTiter-Fluor™ (Promega), and for luciferase expression using ONE-Glo™ (Promega). The ONE-Glo™ signal was normalized to the CellTiter-Fluor™ signal, and the percentage of NFAT activation relative to high and low controls was calculated. The data were analyzed by using nonlinear regression to generate EC50 values. Selective CSK inhibitors affect an increase in luciferase expression in the presence of low level stimulation of the T-cell receptor.
On the technique in general: Reporter assays use an easily measured gene product as a stand-in for the process of interest.

The target in a further assay is T2, CSK (Homo sapiens, UniProt P41240).
T2 construct: purchased Thermo Fisher
Kind of assay: Human CSK enzymatic assay (AlphaScreen, Poly (Glu4-Tyr) substrate). It counts as biochemical. As to conditions: 100 uM ATP; read-out: CSK IC50 (μM) COFACTOR: 100 uM ATP. How it is done:
This assay measures the ability of CSK to phosphorylate a biotinylated peptide containing multiple tyrosine residues in vitro. The CSK enzyme was purchased from Thermo Fisher. The biotinylated Poly (Glu4-Tyr) peptide substrate was purchased from Sigma-Aldrich. The CSK enzyme assay was performed using 0.75 ng CSK enzyme and 30 nM Poly (Glu4-Tyr) substrate in the presence of 25 mM Hepes pH 7.5, 5 mM Mg Acetate, 0.1% NP-40, 1 mM DTT, 0.01% BSA, and 100 μM ATP. A 19 μL volume of the above reaction mixture was added to wells of 384-well AlphaPlate (PerkinElmer GA, USA) containing 1 μL of various concentrations of test compound or DMSO vehicle and incubated for 60 minutes at room temperature. 16 wells containing all the components of reaction mixture and 5% DMSO serve as high control. 16 wells containing all the components except ATP of reaction mixture and 5% DMSO served as low control. The enzymatic reaction was stopped by the addition of 5 μL stop/detection mixture containing 25 mM Hepes pH 7.5 100 mM EDTA, and 5 μg/mL streptavidin-coated AlphaScreen donor beads (PerkinElmer GA, USA) and incubated for 20 minutes. A 5 μL mixture containing 25 mM Hepes pH 7.5, 100 mM EDTA, and 5 μg/mL anti-phosphotyrosine antibody PY20-coated AlphaScreen acceptor beads (PerkinElmer GA, USA) was added and the plate was incubated for 1 hour at room temperature. The streptavidin donor beads bind to the biotin moiety on the biotinylated Poly (Glu4-Tyr) substrate and the PY20 antibody-coated acceptor beads bind to tyrosine residues on the substrate that have been directly phosphorylated by CSK. Upon excitation of these beads with laser light at 680 nm, singlet oxygen was produced. This singlet oxygen was rapidly quenched, unless the AlphaScreen PY20 acceptor beads are in close proximity, in which case a proximity signal can be measured at 580 nm. In the presence of catalytic activity, there was a very strong proximity signal. Selective CSK inhibitors affect a decrease in this proximity signal through a decrease in phosphorylation of the Poly (Glu4-Tyr) substrate. The percentage of inhibition at individual concentrations relative to high and low controls was calculated. The data were analyzed by using nonlinear regression to generate IC50 values. Human LCK enzymatic assay

T2 sequence (P41240 whole entry): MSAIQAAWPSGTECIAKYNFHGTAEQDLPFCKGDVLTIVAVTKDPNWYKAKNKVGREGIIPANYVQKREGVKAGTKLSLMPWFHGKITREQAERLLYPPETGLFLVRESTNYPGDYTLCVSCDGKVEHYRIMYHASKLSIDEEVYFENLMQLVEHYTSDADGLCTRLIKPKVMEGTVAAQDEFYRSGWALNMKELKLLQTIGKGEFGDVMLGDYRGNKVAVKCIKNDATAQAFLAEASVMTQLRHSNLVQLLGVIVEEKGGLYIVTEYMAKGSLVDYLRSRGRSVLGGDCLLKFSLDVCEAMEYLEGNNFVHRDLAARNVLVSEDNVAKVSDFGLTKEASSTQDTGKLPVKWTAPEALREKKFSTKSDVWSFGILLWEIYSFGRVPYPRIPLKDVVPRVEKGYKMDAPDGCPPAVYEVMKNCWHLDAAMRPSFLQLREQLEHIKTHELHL
T1 sequence (P06239 whole entry): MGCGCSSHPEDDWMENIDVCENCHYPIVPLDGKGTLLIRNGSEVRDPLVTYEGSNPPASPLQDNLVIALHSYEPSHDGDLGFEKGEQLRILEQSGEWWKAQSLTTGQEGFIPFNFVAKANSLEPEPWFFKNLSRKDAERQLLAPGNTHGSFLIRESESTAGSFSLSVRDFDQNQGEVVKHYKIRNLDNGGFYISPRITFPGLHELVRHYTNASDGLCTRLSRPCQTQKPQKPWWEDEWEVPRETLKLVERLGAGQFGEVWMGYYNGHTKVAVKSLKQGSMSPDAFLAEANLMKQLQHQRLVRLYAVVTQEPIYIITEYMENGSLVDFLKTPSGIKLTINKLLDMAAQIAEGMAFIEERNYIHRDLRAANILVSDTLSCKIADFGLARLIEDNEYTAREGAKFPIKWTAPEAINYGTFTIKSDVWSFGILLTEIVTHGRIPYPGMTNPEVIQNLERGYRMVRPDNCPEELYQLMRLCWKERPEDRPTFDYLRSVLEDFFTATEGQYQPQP

Turning to `Nc1cc2c(cn1)cc(-c1c(F)ccc(NS(=O)(=O)c3cc4scnc4cc3F)c1F)c(=O)n2CC(F)(F)F` [P-0021, N-(3-(7-amino-2-oxo-1-(2,2,2-trifluoroethyl)-1,2-dihydro-1,6-naphthyridin-3-yl)-2,4-difluorophenyl)-5-fluorobenzo[d]thiazole-6-sulfonamide], the IC50 fell in the range of 0.5 to 5 µM at LCK and 0.001 to 0.5 µM on CSK. Moreover, in the assay on Jurkat/NFAT-RE cells, the EC50 was 0.001 to 0.5 µM.
Consider `Nc1cc2c(cn1)cc(-c1c(F)ccc(NS(=O)(=O)c3ccc4ncsc4c3F)c1F)c(=O)n2CC(F)(F)F` [P-0022, N-(3-(7-amino-2-oxo-1-(2,2,2-trifluoroethyl)-1,2-dihydro-1,6-naphthyridin-3-yl)-2,4-difluorophenyl)-7-fluorobenzo[d]thiazole-6-sulfonamide], for which the IC50 on LCK fell in the range of 0.5 to 5 µM; on CSK, 0.001 to 0.5 µM. For the same molecule, the EC50 with Jurkat/NFAT-RE cells lay within 0.001 to 0.5 µM.
Consider `Nc1cc2c(cn1)cc(-c1c(F)ccc(NS(=O)(=O)c3ccc4ncsc4c3)c1F)c(=O)n2CC(F)F` [P-0023, N-(3-(7-amino-1-(2,2-difluoroethyl)-2-oxo-1,2-dihydro-1,6-naphthyridin-3-yl)-2,4-difluorophenyl)benzo[d]thiazole-6-sulfonamide], for which the IC50 fell in the range of 0.5 to 5 µM at LCK and 0.001 to 0.5 µM at CSK. Also, the concentration for a half-maximal effect (EC50) in the assay with Jurkat/NFAT-RE cells lay within 0.001 to 0.5 µM.
Take `Nc1cc2c(cn1)cc(-c1c(F)ccc(NS(=O)(=O)c3cc4scnc4cc3F)c1F)c(=O)n2C1CCC1` [P-0024, N-(3-(7-amino-1-cyclobutyl-2-oxo-1,2-dihydro-1,6-naphthyridin-3-yl)-2,4-difluorophenyl)-5-fluorobenzo[d]thiazole-6-sulfonamide]: the results for the IC50 at LCK and on CSK were 5 to 100 µM and 0.001 to 0.5 µM, respectively. Besides, in the assay with Jurkat/NFAT-RE cells, the EC50 was 0.001 to 0.5 µM.
Consider `O=c1c(-c2c(F)ccc(NS(=O)(=O)c3cc4scnc4cc3F)c2F)cc2cnccc2n1CC1CC1` [P-0025, N-(3-(1-(cyclopropylmethyl)-2-oxo-1,2-dihydro-1,6-naphthyridin-3-yl)-2,4-difluorophenyl)-5-fluorobenzo[d]thiazole-6-sulfonamide], for which the IC50 on LCK lay within 5 to 100 µM; on CSK, 0.5 to 5 µM. Further, in the assay on Jurkat/NFAT-RE cells, the EC50 fell in the range of 5 to 100 µM.
As to `Nc1cc2c(cn1)cc(-c1c(F)ccc(NS(=O)(=O)c3ccc4ncsc4c3)c1F)c(=O)n2C1CC1` [P-0026, N-(3-(7-amino-1-cyclopropyl-2-oxo-1,2-dihydro-1,6-naphthyridin-3-yl)-2,4-difluorophenyl)benzo[d]thiazole-6-sulfonamide], the IC50 lay within 5 to 100 µM at LCK and 0.001 to 0.5 µM on CSK. The EC50 with Jurkat/NFAT-RE cells fell in the range of 0.5 to 5 µM.
